Data on eight compounds can be found in US4122179A, “Acid addition salts of vincamine and apovincamine” (priority 1976, dated 1978).

SMILES strings stand for the structures.

Data set [1] can be described thus: LD50 / acute toxicity, intraperitoneal route. In kind it is in vivo. The following applies: i.p.; for Toxicity (Gleason): Gleason class in words, classes not defined.
A short description of the next data set: Solubility. In kind it is physicochemical. The settings on record: qualitative; for solubility in alcohol: alcohol (ethyl alcohol).
A short description of data set [2]: Hematic levels at different times after oral administration (absorption). In kind it is in vivo, Wistar rat. The settings on record: 100 mg/kg expressed as vincamine/apovincamine, 5% carboxymethyl cellulose suspension, 100 mg/kg. The procedure: (§1) For the compounds of the present invention a number of pharmacological and pharmacokinetic tests have been carried out. […] As regards the pharmacological and pharmacodynamic activity, it has been studied on the percent variations of the hematic flow, as recorded at the vertebral arteria in the dog after administration of the tested compounds. As regards the pharmacokinetic tests, the compounds were administered per oral route to the Wistar rat, and the hematic levels at different times from the administration were measured.
For the evaluation of the absorption, all the compounds have been orally administered at the dosage of 100 mg/kg, expressed as vincamine and apovincamine, in form of a suspension in a 5% carboxymethyl cellulose solution.
The absorption was determined by evaulating the hematic levels at the following times (minutes) : 0, 30, 120, 240, 480, 10 hours and 12 hours, in order also to assess the time from the administration (max conc.time) the maximum absorption occurred.
The vincamine and apovincamine concentrations were assessed by chromatographic method.
For the evaluation of the prolonged action of the salts and of the adducts of vincamine and apovincamine the following criterium was adopted; as derivatives having a long-acting effect, there are considered those which, 120 minutes after the administration, show hematic levels higher than those obtained with vincamine and apovincamine.

The test system of another data set is vertebral arteria. Nature of the data set: Cerebral vasodilating activity: hematic flow at the vertebral arteria after i.v. administration. The class given is in vivo. The following applies: i.v. (femoral vein), 5 mg/kg of vincamine/apovincamine, anesthetized dog, 4 animals per compound; 5 mg/kg. The procedure:
as §1
The cerebral vasodilating activity was studied in the anestetized dog, by measuring, by means of Statham periarterial electromagnetic flowmeters, the hematic flow at the level of the […] which, in such animal species, constitutes the greatest blood supply to the brain.
The resuls are reported in the TABLE 2 (last column) as the percent variations of the flow measured at the level of the ledt vertebral arteria after the i.v. administration of the several compounds to be tested to groups of 4 animals for each compound. The results also confirm that the compounds of the invention are all endowed with a vasodilating activity at the level of the cerebral circulus, such an action being, for some compounds, much more remarkable than that of vincamine and apovincamine.

For the compound `CC[C@]12CCCN3CCc4c(n(c5ccccc45)[C@@](O)(C(=O)OC)C1)[C@@H]32` [Example 10.a], in data set [1], the median lethal dose (LD50) (in general, the dose expected to kill half of the subjects tested) was 1300 mg/kg and the “Toxicity (Gleason)” value was “light”. Further, in the data set “Solubility”, the solubility in alcohol entry is recorded as “insoluble” and the solubility in water result is recorded as “insoluble”. The compound also returned a Max. conc. time in data set [2] of 240 min. The “% increase (percent variation of hematic flow, left vertebral arteria)” value in the data set with vertebral arteria was found to be 27.9%.
`CC[C@@]12C=C(C(=O)OC)n3c4c(c5ccccc53)CCN(CCC1)[C@H]42` [Example 10.b, Apovincamine pivalate]: in data set [1], the LD50 amounted to 750 mg/kg and the “Toxicity (Gleason)” value is “modest”. For the same compound, in “Solubility”, the solubility in alcohol result is reported as “soluble” and the solubility in water entry is reported as “insoluble”. Further, in data set [2], the Max. conc. time was determined as 480 min. Moreover, the “% increase (percent variation of hematic flow, left vertebral arteria)” value in the data set on vertebral arteria was determined as 31.4%.
As for `CC[C@]12CCCN3CCc4c(n(c5ccccc45)[C@@](O)(C(=O)OC)C1)[C@@H]32` [Example 11.a, Vincamine 4-acetamidobutyrate], in data set [1], the median lethal dose (LD50) is reported as 700 mg/kg and the “Toxicity (Gleason)” value is “modest”. In “Solubility”, the solubility in alcohol result is given as “insoluble” and the solubility in water result is given as “insoluble”. The Max. conc. time in data set [2] came to 480 min. The “% increase (percent variation of hematic flow, left vertebral arteria)” value in the data set with vertebral arteria was determined as 29.3%.
On to `CC[C@@]12C=C(C(=O)OC)n3c4c(c5ccccc53)CCN(CCC1)[C@H]42` [Example 11.b, Apovincamine 4-acetamidobutyrate], for which, in data set [1], the LD50 came out at 1500 mg/kg and the “Toxicity (Gleason)” value is “light”. Also, in “Solubility”, the solubility in alcohol entry is listed as “insoluble” and the solubility in water result was “insoluble”. In data set [2], this compound registered a Max. conc. time of 480 min. Further, the “% increase (percent variation of hematic flow, left vertebral arteria)” value with vertebral arteria was determined as 33.0%.
On to `CC[C@]12CCCN3CCc4c(n(c5ccccc45)[C@@](O)(C(=O)OC)C1)[C@@H]32` [Example 12.a, Vincamine furoate (furan-2-carboxylate)], for which, in data set [1], the median lethal dose (LD50) came out at 800 mg/kg and the “Toxicity (Gleason)” value is “modest”. Further, in the data set “Solubility”, the solubility in alcohol entry is “insoluble” and the solubility in water entry was “insoluble”. In data set [2], this compound came in with a Max. conc. time of 120 min. The “% increase (percent variation of hematic flow, left vertebral arteria)” value with vertebral arteria was found to be 24.8%.
`CC[C@]12CCCN3CCc4c(n(c5ccccc45)[C@@](O)(C(=O)OC)C1)[C@@H]32` [Example 13.a, Vincamine D(+)-camphorsulfonate]: in data set [1], the median lethal dose (LD50) was determined as 1350 mg/kg and the “Toxicity (Gleason)” value is “light”. Moreover, in the data set “Solubility”, the solubility in alcohol entry was “poorly soluble”, the “solubility in the common (organic) solvents” value is reported as “insoluble” and the solubility in water result was “soluble”. Also, the Max. conc. time in data set [2] came out at 60 min. Further, the “% increase (percent variation of hematic flow, left vertebral arteria)” value in the data set with vertebral arteria is reported as 30.1%.
Consider `CC[C@]12CCCN3CCc4c(n(c5ccccc45)[C@@](O)(C(=O)OC)C1)[C@@H]32` [Example 14.a, Vincamine L(+)-O,O-dibenzoyltartrate], for which, in data set [1], the LD50 was 950 mg/kg and the “Toxicity (Gleason)” value is on record as “modest”. Moreover, in the data set “Solubility”, the solubility in alcohol entry was “poorly soluble”, the “solubility in the common (organic) solvents” value was “insoluble” and the solubility in water result was “poorly soluble”. Besides, the Max. conc. time in data set [2] is 60 min. The “% increase (percent variation of hematic flow, left vertebral arteria)” value with vertebral arteria stood at 29.6%.
In the case of `CC[C@@]12C=C(C(=O)OC)n3c4c(c5ccccc53)CCN(CCC1)[C@H]42` [Example 14.b, Apovincamine L(+)-O,O-dibenzoyltartrate], in data set [1], the 50% lethal dose (LD50) came to 1500 mg/kg and the “Toxicity (Gleason)” value is recorded as “light”. The solubility in alcohol entry in “Solubility” is on record as “soluble”. The same compound displayed a Max. conc. time in data set [2] of 120 min. Moreover, the “% increase (percent variation of hematic flow, left vertebral arteria)” value with vertebral arteria was determined as 31.0%.
